Assays:
guinea pig ileum = experiment: Opiate activity by guinea pig ileum assay (in vitro); format: cell-based; settings: for relative potency: calculated using the IC50 of βh-endorphin as 100%; for IC50: guinea pig ileum assay
Text: (§1) In vitro assay of opiate activity was by the guinea pig ileum method of Kosterlitz et al, Brit. J. Pharmacol. 39, 398 (1970) and in vivo assay in mice was by the tail-flick method of D'Amour and Smith, J. Pharmacol. Exp. Therap. 72, 74 (1941). The experimental procedure and method of calculation has been outlined by Loh et al., Proc. Natl. Acad. Sci. 73, 2895 (1976) and Tseng et al., Nature 263, 239 (1976).

mice = experiment: Analgesic potency in mice by tail-flick method (in vivo); settings: for AD50: mice, tail-flick; for relative potency: molar basis, AD50 of βh-endorphin as 100%
Text: as §1

Substance	relative potency (guinea pig ileum) [%]	IC50 (guinea pig ileum) [nM]	AD50 (mice; intracerebroventricular)	relative potency (mice; intracerebroventricular) [%]	AD50 (mice; intravenous)	relative potency (mice; intravenous) [%]	duration of analgesic activity (mice; after iv injection compared with icv injection)	in vivo analgesic activity compared with βh-endorphin (mice; mouse, iv or icv, in words)
[D-Thr^2, Phe^27, Gly^31 ] - βh EP [Peptide IV]	136	33	0.52(0.24-1.16) μg/mouse	21	ca. 32.0 mg/kg	32		
[Nle^5, Phe^27, Gly^31 ] - βh -EP [Peptide III]	118	38	0.31(0.14-0.72) μg/mouse	35	ca. 17.0 mg/kg	65		
[Phe^27, Gly^31 ] - βh -EP (YGGFMTSEKSQTPLVTLFKNAIIKNAFKKGG; Beta-endorphin; UniProt P01189 237-267, looked up, variant Y27F E31G) [Peptide I, analog of human β-endorphin substituted with Phe at 27 and Gly at 31]	128	35	0.09(0.08-0.11) μg/mouse	119	7.5(3.4-16.5) mg/kg	148	shorter than after icv injection	greater in vivo analgesic activity than the natural peptide
[Ala^6,7, Phe^27, Gly^31 ] - βh -EP (YGGFMAAEKSQTPLVTLFKNAIIKNAFKKGG; Beta-endorphin; UniProt P01189 237-267, looked up, variant T6A S7A Y27F E31G) [Peptide II, analog of human β-endorphin substituted with Ala at 6 and 7, Phe at 27, Gly at 31]	118	38	0.46(0.28-0.77) μg/mouse	23	22.1(14.3-34.3) mg/kg	49		
βh -endorphin [reference compound]	100	45	0.11(0.07-0.17) μg/mouse	100	11.4(6.4-19.6) mg/kg	100		

Reference: patent publication US4116950A, “Analogs of human β-endorphin” (Hoffmann-La Roche Inc., priority 1978, dated 1978)
